Structures can show the parent of a compound that is named as a salt.
Assays:
male SD rat = experiment: Reduction of infarct in a model with occlusion of midbrain/cerebrum arteries; assay type: in vivo; conditions: from 30 min after occlusion, 6 h, vs solvent only
Description: The cervical region of a 8-week-old male SD rat was cut across the midline, and a right carotid artery was removed. An operation nylon thread (standard 4-0) was inserted into an external carotid artery, and blood stream in the midbrain/cerebrum arteries in the skull was occluded by the nylon thread, whereby a model with occlusion of midbrain/cerebrum arteries was prepared. Thirty minutes after the midbrain/cerebrum arteries were occluded, a test compound or its solvent only was once administered intravenously into the rat, and thereafter, it was continuously administered intravenously at a constant injection rate. The body temperature was controlled at 37.5 to 38.0° from the initiation of administration to the termination of administration. Six hours after the initiation of administration, the brain was excised from the rat and immediately cut into brain sections of 2 mm in thickness, which were then stained with 2% TTC solution. An image of these stained sections was incorporated into NIH image and the area of non-stained portions showing infarct loci was measured, and thereafter, the volume of the infarct loci was calculated.

AMPA receptor = experiment: Inhibitory action on AMPA-inducing inflow of calcium into nerve cells (Fura2-AM); assay type: cell-based; conditions: rat cerebral cortex nerve cells on astrocytes, 1 μM MK-801, stimulated by 2 μM AMPA, fluorescence 340/380 nm
Description: The cerebral cortex was excised from the brain of a rat on day 18 after birth and treated with trypsin and DNase, whereby the cells were dispersed. The cells were allowed to float on DMEM containing 10% serum, inoculated into a culture bottle, and their astrocytes were grown. The astrocytes were re-dispersed with trypsin and inoculated onto each well on a 96-well plate. After it was confirmed that the bottom of each well was completely covered with the astrocytes after culture for 1 week, cerebral cortex nerve cells dispersed in the same manner as above were inoculated thereon. After 24 hours, the medium was exchanged with fresh one, and after culture for further 1 week, the medium was exchanged with a medium containing 1 μM MK-801.
The inflow of calcium into the cells was measured using Fura2-AM that is a calcium-sensitive fluorescent pigment. By treating the cells with a Fura2-AM-containing medium for 1 hour, Fura2-AM was incorporated into the cells, and the medium was exchanged with a Tyrode solution containing 1 μM MK-801. After a test compound was added, the cells were stimulated by 2 μM AMPA. The change in the amount of calcium flowing into the cells was measured as a change in the fluorescence intensity at wavelengths of 340/380 nm. The effect of a test compound was evaluated where the reaction caused by AMPA added to the Tyrode solution free of the test compound was used as the control.

AMPA receptor channels = experiment: Inhibitory action on AMPA-inducing electric current in nerve cell membrane (patch clamp); assay type: cell-based; conditions: cultured rat cerebral cortex nerve cells, membrane potential -70 mV, 10 μM AMPA
Description: The action on AMPA receptor channels was examined by a patch clamp method.
The cerebral cortex was excised from the brain of a rat on day 18 after birth and treated with trypsin and DNase, whereby the cells were dispersed. The cells were allowed to float on DMEM containing 10% serum, inoculated into a culture bottle, and their astrocytes were grown. The astrocytes were re-dispersed with trypsin and inoculated onto each well on a 12-well plate.
After it was confirmed that the bottom of each well was completely covered with the astrocytes after culture for 1 week, a cover glass treated with poly-1-lysine was placed thereon, and cerebral cortex nerve cells dispersed in the same manner as above were further inoculated thereon. After 24 hours, the medium was exchanged with fresh one, and after culture for further 1 week, the medium was exchanged with a medium containing 1 μM MK-801.
The membrane potential of the cerebral cortex nerve cells cultured for 9 days or more was fixed at −70 mV by a patch clamp method, and after a test compound was added, 10 μM AMPA was applied as a stimulus to the cells. By using, as the control, electric current flowing via the membrane into the cells in the absence of the test compound, the action of the compound in Example 1 was examined.

male ddy mice = experiment: Inhibitory action on AMPA-inducing spasm; assay type: in vivo; conditions: intravenous, 5 minutes before 1.5 nmol AMPA into the ventricle
Description: A test compound or its solvent only was intravenously injected into 4-week-old male ddy mice, and 5 minutes later, 1.5 nmol AMPA was administered into the ventricle thereby inducing spasm. The action of the test chemical was judged by the presence or absence of spasm, and its dose causing 80% or more inhibition was regarded as an effective dose.

[1] = test system: rat model with cerebral ischemia; conditions: Le Peillet et al., Brain Research, 571, 115, 1992; cited from earlier work
[2] = test system: experimental animal model with cerebral ischemia; conditions: Sheardown et al., Science, 247, 571, 1990; cited from earlier work

Row | SMILES | reduction of infarct loci in the cerebral cortex (male SD rat; single i.v. 6.6 mg/kg then continuous i.v. 10 mg/kg/h) | reduction of infarct loci in the cerebral cortex (male SD rat; single i.v. 20 mg/kg then continuous i.v. 30 mg/kg/h) | IC50 (AMPA receptor) | IC50 (AMPA receptor channels) | effective dose (dose causing 80% or more inhibition of spasm) (male ddy mice) | nerve-protecting action in rat model with cerebral ischemia [1] | effect in experimental animal model with cerebral ischemia [2]
1 | O=C1COC(c2ccccn2)=NN1c1ccccc1 [Example 1, 2-(2-Pyridyl)-4-phenyl-4H-1,3,4-oxadiazine-5(6H)-one hydrochloride] | 54% | 74% | 11.8 µM | 12.3 µM | 30 mg/kg |  | 
2 | CC1=NN=C(c2ccc(N)cc2)c2cc3c(cc2C1)OCO3 [GYKI 52466, 1-(amino-phenyl)-4-methyl-7,8-methylenedioxy-5H-2,3-benzoazepine hydrochloride, reference compound] |  |  | 9.02 µM |  |  | exerts a nerve-protecting action | 
3 | NS(=O)(=O)c1cccc2c1c([N+](=O)[O-])cc1nc(O)c(O)nc12 [NBQX, 2,3-dihydroxy-6-nitro-7-sulfamoyl-benzo[f-]quinoxaline] |  |  |  |  |  |  | effective
